“And” between values parts separate entries of the source, which are not always exact repeats. Identical values can stand only once. The source made the active and inactive calls.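 The calls were made as follows: active = compounds giving half or more protection of infected cells from virus-caused growth loss, again on retest; inactive = the rest.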
System: CEM cells HIV-1 protection, formazan growth assay
Assay: NCI AIDS Antiviral Assay
Conditions: for IC50: measured here: growth of uninfected CEM cells
Procedure, shortened: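 Protection of CEM cells against HIV-1 measured as cell growth via soluble formazan read-out, with five concentrations tested on both infected and uninfected cells; failure to protect may reflect toxicity.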

Compound	EC50 [µM]	IC50	outcome
N#Cc1c(-c2ccccc2)c(-c2ccccc2)cc2c(=O)c3ccc(Cl)cc3[nH]c12	> 33.1	> 33.1 µM	–
CC1=C[C@H]2O[C@@H]3C[C@H]4OC(=O)/C=C\C=C\[C@H]([C@@H](C)O)OC[C@H](O)[C@@]5(C)O[C@@H]5C(=O)OC[C@@]2(C[C@H]1O)[C@]4(C)C31CO1 (some centres not stated)	> 4.47	0.00575 µM	–
COc1cc2c(c(OC)c1OC)C(=O)[C@@H](OC(=O)CCCCl)[C@H]2N	> 200	> 200 µM	–
O=C(CCCN1CCC(Nc2ccccc2)(c2nnnn2C2CCCCC2)CC1)c1ccc(F)cc1	> 200	75.9 µM	–
COC(=O)CCC1CCc2c(OC)ccc(OC)c2C1=O (configuration not stated)	–	–	inactive
O=C(CCC[n+]1ccccc1)Sc1ccccc1C(=O)NCc1ccc2c(c1)OCO2	> 16.6	3.39 µM	–
CC(C)OC(=O)c1ccc(NCC2=CC(=O)C=CC2=O)cc1Cl	> 200	9.33 µM	–
O=C1NC(=O)C(CC2CCCCCCCCCCC2=O)C(=O)N1 (configuration not stated)	> 112	> 112 µM	–
COc1cc2c(c(OC)c1OC)C(=O)CC2N (configuration not stated)	> 200	> 200 µM	–
CCOC(=O)C1=C(Nc2ccc(Cl)cc2Cl)OC/C1=N\NS(=O)(=O)c1ccc(C)cc1	> 28.2	> 28.2 µM	–
Clc1cccc(Cl)c1C=NC12CC3CC(CC(C3)C1)C2	> 200	> 200 µM	–
CCOc1ccc(/C=C/C(=O)c2sc(NNC(C)=O)nc2C)cc1	> 20.9	> 20.9 µM	–
Cc1cccc2c(=O)c3c(O)cc4c(c3n(C)c12)C=CC(C)(C)O4	> 200	14.8 µM	–
Cc1cc(=O)oc2cc(O)cc(O)c12	> 1290	166 µM	–
CCOC(=O)Nc1cc(NC(C)/C(=N/O)c2ccccc2)c([N+](=O)[O-])c(N)n1 (configuration not stated)	–	–	inactive
O=C(O)c1cc(Cc2cc(Cl)c(O)c(C(=O)O)c2)cc(Cl)c1O	> 501	347 µM and 204 µM	–
CSc1nnc2sc(=S)[nH]n12	> 200	> 200 µM	–
CC(C)=C=CP(=O)(O)c1ccccc1	> 200	> 200 µM	–

Compound	EC50 [µM]	IC50	outcome
OC(CCN1CCOCC1)c1ccc(Sc2ccccc2)cc1 (configuration not stated)	> 200	36.3 µM	–
O=C(NN1C(=O)C(Cl)C1c1ccc(O)cc1)c1ccccc1O (configuration not stated)	> 21.9	10.2 µM	–
CN(C)c1nc(Oc2nc(N(C)C)nc(N(C)C)n2)nc(N(C)C)n1	> 724	17.4 µM	–
Oc1c(Br)cc(Br)cc1/C=C/NC(=S)NC1CC2CC1C1C=CCC21 (configuration not stated)	> 200	3.02 µM	–
CC(C)C(=O)NC(=S)Nc1ccc([N+](=O)[O-])cc1C#N	> 123	> 123 µM	–
CCOP(=S)(OCC)Oc1cc(C)nc(C(C)C)n1	> 309	> 309 µM	–
Cc1ccc2c(c1)C(C1Cc3c(C)cccc3C1=O)OC2=O (configuration not stated)	> 200	> 200 µM	–
COc1cc2c(c(OC)c1OC)-c1ccc(SC)c(=O)cc1C(NC=O)CC2 (configuration not stated)	> 0.002	0.0011 µM	–
CCCCCCCCCc1nn2c(Cc3ccccc3)nnc2s1	> 200	36.3 µM	–
CC(C)(C)OC(=O)NC1CCCC1C(O)(C1=CCCC1)C1=CCCC1 (configuration not stated)	> 200	120 µM	–
CC(=O)[O-].CC(=O)[O-].O=C(N/N=C/c1cc(Cl)cc(Cl)c1[OH2+])c1ccncc1.[Mn+2]	–	–	inactive
O=C(O)c1ccc(S(=O)(=O)O)o1	> 200	> 200 µM	–
OC1c2cccn2-c2cc(Cl)ccc2SC1c1ccccc1 (configuration not stated)	> 70.8	4.47 µM	–
O=C1/C(=C\c2cccc(Oc3ccccc3)c2)S(=O)(=O)C(c2ccccc2)N1c1ccccc1Cl (configuration not stated)	> 2	0.0427 µM	–
Cc1cn(C2C=CC(COP(=O)(OCC(=O)c3ccccc3)OCC(=O)c3ccccc3)O2)c(=O)[nH]c1=O (configuration not stated)	0.851	110 µM	–
CC1(c2nc3cc(Cl)c(Cl)cc3[nH]2)CCC(C(=O)O)C(C)(C)O1 (configuration not stated)	> 200	> 200 µM	–
Cc1nc(N(CCO)CCO)nc2c1C(=O)Nc1ccccc1N2	> 200	42.7 µM	–

Reference: PubChem BioAssay AID179 (DTP/NCI, 2004)
